Results: PubChem BioAssay AID2060899 (Molecular Pharmacology Branch, DTP, NCI, 2025)

Test system: 565726-208-R1-J5-PDC complex spheroids, growth inhibition
Test: Anticancer human tumor 565726-208-R1-J5-PDC patient-derived pancreatic adenocarcinoma cell line growth inhibition [RAS]
Conditions: for IC50: curve of first compound; for viability, T/C: stronger effect = lower value
Excerpt: RAS pathway inhibitors in Combinations in Complex Spheroids
A high-throughput screen of multi-cell type tumor spheroids was designed to identify active combinations of RAS pathway inhibitors and targeted small molecules. Complex spheroids include a stromal component modeled by human endothelial cells (HUVEC) and fibroblasts modeled by human mesenchymal stem cells (MSCs). The concentration ranges selected for each drug and investigational agent were based upon clinically achievable concentrations if the clinical Cmax of the agent was known.
Compounds. The drugs and investigational agents: abemaciclib (NSC768073), cobimetinib (NSC768068), divarasib (GDC6063, NSC841802), docetaxel (NSC628503), GDC-1971 (RLY-1971, NSC841576), gemcitabine (NSC613327), inavolisib (NSC800729), ipatasertib (NSC767898), KB-0742 (NSC834161), MRTX-1133 (NSC836407), osimertinib (NSC779217), RMC-4630 (NSC839698), RMC-6236 (NSC851965), RMC-6291 (NSC852671), Ro-3306 (NSC812927), sapanisertib (NSC764658), SN-38 (NSC673596), staurosporine (NSC755774), SY5609 (NSC837396), and tovorafenib (DAY101, NSC766906), were obtained from the National Cancer Institute (NCI) Developmental Therapeutics Program Chemical Repository. The FDA-approved anticancer drug set is available from the NCI Developmental Therapeutics Program. […] The stock solutions were prepared in dimethyl sulfoxide (DMSO, Sigma-Aldrich, St. Louis, MO, cat. D2650) at 800-fold the tested concentration and stored at -70 degrees C prior to their use. All drugs and investigational agents were tested over a range starting from a high concentration at or near the clinical Cmax and decreasing in half-log increments. If the clinical Cmax for an agent had not been determined, the highest concentration tested was 10 microM.
Cell Culture. All cells were maintained in an incubator at 37 degrees C and 5% CO2 with 95% humidity. The PDC lines were cultured according to standard operating procedures established by the NCI PDMR. All PDCs were thawed and cultured in Matrigel-coated flasks prepared with a working solution of 1X Ham's F-12 nutrient mix, without supplementation (Invitrogen, Waltham, MA, cat. 11765054), 100 U/mL penicillin-streptomycin (Invitrogen, cat. 15140122), and 2.5% Matrigel (Corning Inc., Corning, NY, cat. 354248) for the first three passages. The 362531-283-R-J2-PDC and 782815-120-R-J1-PDC lines were cultured in 6C/Colon 1B media, which includes advanced DMEM/F-12 (Thermo Fisher Scientific, cat. 12634028), 10 mM HEPES (Thermo Fisher Scientific, cat. 15630080), 1X GlutaMAX supplement (Thermo Fisher Scientific, cat. 35050061), 0.1 mg/mL primocin (InvivoGen, San Diego, CA, cat. ant-pm-2), 10% defined fetal bovine serum, heat inactivated (HyClone Laboratories Inc., Logan, UT, cat. SH30070.03HI), 50% L-WRN conditioned media (ATCC, cat. CRL-3276), 1.25 mM N-Acetyl-L-cysteine (Sigma-Aldrich, cat. A9165), 10 mM nicotinamide (Sigma-Aldrich, cat. N0636), 1X B-27 supplement (Thermo Fisher Scientific, cat. 17504044), 1X N-2 supplement (Thermo Fisher Scientific, cat. 17502048), 50 ng/mL human EGF (Thermo Fisher Scientific, cat. PHG0311), and 10 microM Y-27632 dihydrochloride (Tocris Bioscience, cat. 1254). The K12877-001-R-J1-PDC line was cultured in 6I media, which includes all 6C/Colon 1B media plus 10 ng/mL human FGF-10 (PeproTech, cat. 100-26), 1 ng/mL human FGF-2 (PeproTech, cat. 100-18B), 1 µM prostaglandin E2 (Tocris Bioscience, cat. 2296), […] hydrocortisone (Sigma-Aldrich, cat. H4001), and […] bovine insulin (Sigma-Aldrich, cat. I6634). The K86415-001-R-J1-PDC line was cultured in 6D media, which includes all 6C/Colon 1B media components minus the L-WRN conditioned media. The 485176-168-R4-J1-PDC was cultured in PANC media, which includes all 6C/Colon 1B media plus 100 ng/mL human FGF-10 (PeproTech, cat. 100-26), 500 nM SB-431542 (Selleckchem, cat. S1067), and 10 nM gastrin (Tocris Bioscience, cat. 3006). […]
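Note: spheroids exposed to compounds for seven days before readout.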
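Throughout, for viability, T/C: 100% = DMSO vehicle control viability.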

NC1c2ccccc2OC12CCN(c1cnc3c(N4CCCc5ncccc54)n[nH]c3n1)CC2 (centres undefined) + CCn1c(-c2cc(N3CCN(C)CC3)cnc2C(C)OC)c2c3cc(ccc31)-c1csc(n1)CC(NC(=O)C1CC1C)C(=O)N1CCCC(N1)C(=O)OCC(C)(C)C2
IC50 (second compound 0.000949 µM): 45 nM | IC50 (second compound 0.003 µM): < 31.6 nM | IC50 (second compound 0.00949 µM): < 31.6 nM | IC50 (second compound 0.03 µM): < 31.6 nM | IC50 (second compound 0.0949 µM): < 31.6 nM | IC50 (second compound 0.3 µM): < 31.6 nM | viability, T/C (second compound 0.000949 µM, first compound 0.0316 µM): 53.3% | viability, T/C (second compound 0.000949 µM, first compound 0.1 µM): 42.6% | viability, T/C (second compound 0.000949 µM, first compound 0.316 µM): 24.9% | viability, T/C (second compound 0.000949 µM, first compound 1 µM): 23.5% | viability, T/C (second compound 0.000949 µM, first compound 3.16 µM): 17.5% | viability, T/C (second compound 0.000949 µM, first compound 10 µM): 21.3% | viability, T/C (second compound 0.003 µM, first compound 0.0316 µM): 36.7% | viability, T/C (second compound 0.003 µM, first compound 0.1 µM): 27.4% | viability, T/C (second compound 0.003 µM, first compound 0.316 µM): 19.8% | viability, T/C (second compound 0.003 µM, first compound 1 µM): 14.2% | viability, T/C (second compound 0.003 µM, first compound 3.16 µM): 16.9% | viability, T/C (second compound 0.003 µM, first compound 10 µM): 16.4% | viability, T/C (second compound 0.00949 µM, first compound 0.0316 µM): 28.7% | viability, T/C (second compound 0.00949 µM, first compound 0.1 µM): 21% | viability, T/C (second compound 0.00949 µM, first compound 0.316 µM): 16.8% | viability, T/C (second compound 0.00949 µM, first compound 1 µM): 13.7% | viability, T/C (second compound 0.00949 µM, first compound 3.16 µM): 14.5% | viability, T/C (second compound 0.00949 µM, first compound 10 µM): 14% | viability, T/C (second compound 0.03 µM, first compound 0.0316 µM): 21.4% | viability, T/C (second compound 0.03 µM, first compound 0.1 µM): 18% | viability, T/C (second compound 0.03 µM, first compound 0.316 µM): 13.5% | viability, T/C (second compound 0.03 µM, first compound 1 µM): 13% | viability, T/C (second compound 0.03 µM, first compound 3.16 µM): 12.9% | viability, T/C (second compound 0.03 µM, first compound 10 µM): 14.5% | viability, T/C (second compound 0.0949 µM, first compound 0.0316 µM): 19.4% | viability, T/C (second compound 0.0949 µM, first compound 0.1 µM): 17% | viability, T/C (second compound 0.0949 µM, first compound 0.316 µM): 15.5% | viability, T/C (second compound 0.0949 µM, first compound 1 µM): 13.7% | viability, T/C (second compound 0.0949 µM, first compound 3.16 µM): 11.8% | viability, T/C (second compound 0.0949 µM, first compound 10 µM): 13.9% | viability, T/C (second compound 0.3 µM, first compound 0.0316 µM): 17.5% | viability, T/C (second compound 0.3 µM, first compound 0.1 µM): 13.5% | viability, T/C (second compound 0.3 µM, first compound 0.316 µM): 13.6% | viability, T/C (second compound 0.3 µM, first compound 1 µM): 13.1% | viability, T/C (second compound 0.3 µM, first compound 3.16 µM): 12% | viability, T/C (second compound 0.3 µM, first compound 10 µM): 13.8%

CC1(C)CCC(Nc2ncc(C(F)(F)F)c(-c3c[nH]c4c(P(C)(C)=O)c(C#N)ccc34)n2)CN1 (centres undefined) + C=CC(=O)N1CCN(c2nc(OCC3CCCN3C)nc3c(F)c(-c4nc(N)cc(C)c4C(F)(F)F)c(Cl)cc23)C(C)C1
IC50 (second compound 0.00316 µM): 6.76 nM | IC50 (second compound 0.01 µM): 7.74 nM | IC50 (second compound 0.0316 µM): 5.42 nM | IC50 (second compound 0.1 µM): 5.76 nM | IC50 (second compound 0.316 µM): 6.16 nM | IC50 (second compound 1 µM): 6.81 nM | viability, T/C (second compound 0.00316 µM, first compound 0.000949 µM): 133% | viability, T/C (second compound 0.00316 µM, first compound 0.003 µM): 73.7% | viability, T/C (second compound 0.00316 µM, first compound 0.00949 µM): 40.1% | viability, T/C (second compound 0.00316 µM, first compound 0.03 µM): 40.4% | viability, T/C (second compound 0.00316 µM, first compound 0.0949 µM): 41.2% | viability, T/C (second compound 0.00316 µM, first compound 0.3 µM): 37.3% | viability, T/C (second compound 0.01 µM, first compound 0.000949 µM): 136% | viability, T/C (second compound 0.01 µM, first compound 0.003 µM): 74.6% | viability, T/C (second compound 0.01 µM, first compound 0.00949 µM): 46% | viability, T/C (second compound 0.01 µM, first compound 0.03 µM): 34.2% | viability, T/C (second compound 0.01 µM, first compound 0.0949 µM): 41.3% | viability, T/C (second compound 0.01 µM, first compound 0.3 µM): 39.9% | viability, T/C (second compound 0.0316 µM, first compound 0.000949 µM): 127% | viability, T/C (second compound 0.0316 µM, first compound 0.003 µM): 65.8% | viability, T/C (second compound 0.0316 µM, first compound 0.00949 µM): 34.2% | viability, T/C (second compound 0.0316 µM, first compound 0.03 µM): 28.4% | viability, T/C (second compound 0.0316 µM, first compound 0.0949 µM): 39.7% | viability, T/C (second compound 0.0316 µM, first compound 0.3 µM): 37.7% | viability, T/C (second compound 0.1 µM, first compound 0.000949 µM): 143% | viability, T/C (second compound 0.1 µM, first compound 0.003 µM): 67.7% | viability, T/C (second compound 0.1 µM, first compound 0.00949 µM): 33.7% | viability, T/C (second compound 0.1 µM, first compound 0.03 µM): 36.8% | viability, T/C (second compound 0.1 µM, first compound 0.0949 µM): 39% | viability, T/C (second compound 0.1 µM, first compound 0.3 µM): 36.5% | viability, T/C (second compound 0.316 µM, first compound 0.000949 µM): 130% | viability, T/C (second compound 0.316 µM, first compound 0.003 µM): 67.3% | viability, T/C (second compound 0.316 µM, first compound 0.00949 µM): 40.2% | viability, T/C (second compound 0.316 µM, first compound 0.03 µM): 32.5% | viability, T/C (second compound 0.316 µM, first compound 0.0949 µM): 38% | viability, T/C (second compound 0.316 µM, first compound 0.3 µM): 34.6% | viability, T/C (second compound 1 µM, first compound 0.000949 µM): 140% | viability, T/C (second compound 1 µM, first compound 0.003 µM): 70.2% | viability, T/C (second compound 1 µM, first compound 0.00949 µM): 41.7% | viability, T/C (second compound 1 µM, first compound 0.03 µM): 38.9% | viability, T/C (second compound 1 µM, first compound 0.0949 µM): 36.5% | viability, T/C (second compound 1 µM, first compound 0.3 µM): 38.9%
